assay: recombinant barcode read abundance after kanamycin selection (control-corrected) (log10(CPM+1)); higher = more efficient recombination; sequences stand for … in AGTGCAGAGAAAATCGGCCAGTTTTCTCTGCCTGCAGTCCGCATGCCGT…AGATTTATGCAGCGGACTGCCTTTCTCCCAAAGTGATAAACCGGACAGTATCATGGACCGGTTTTCCCGGTAATCCGTATTTGCAAGGTTGGTTTCACT; site = the 11-nt target
Procedure, shortened: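 The screen was pooled in E. coli and paired targets with IS621 bridge RNA target-binding loops. Recombination efficiency is taken from barcode counts per million at recombinant junctions, averaged and adjusted against the control. Values, in the form log10(CPM+1), come from duplicate plating on chloramphenicol/ampicillin LB agar or on chloramphenicol/ampicillin/kanamycin with 0.1 mM IPTG.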
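Note: IS621 recombinase and bridge RNA in Escherichia coli cells.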

Row | Sequence | recombinant barcode read abundance (log10)
1 | CTCTAAACTTGGGTTCTAACCTGTTGCCA (site CTCTAGACTTG) | 0.108
2 | CTCTAAACTTGGGTTCTAACCTGTTGCCA (site CTCTATACTTG) | 0.0391
3 | CTCTAAACTTGGGTTCTAACCTGTTGCGA (site CTCTAAACTTC) | 0.919
4 | CTCTAAACTTGGGTTCTAACCTGTTGCGA (site CTCTCAGCTTC) | 0.0639
5 | CTCTAACCTTGGGTTCTAACCTGTTGCGT (site CTCTAACCTAC) | 1.45
6 | CTCTAACCTTGGGTTCTAACCTGTTGCGT (site CTCTACCCTAC) | 0.0519
7 | CTCTAACCTTGGGTTCTAACCTGTTGCGT (site CTCTAGCCTAC) | 0.413
8 | CTCTAACCTTGGGTTCTAACCTGTTGCGT (site CTCTATCCTAC) | 0.0249
9 | CTCTAGACTTGGGTTCTAACCTGTTGCCT (site CTATAGACTTG) | 0.00655
10 | CTCTAGACTTGGGTTCTAACCTGTTGCCT (site CTCTAGACTAG) | 0.0941
11 | CTCTAGCCTTGGGTTCTAACCTGTTGCAT (site CTCTAGCCTAT) | 0.505
12 | CTCTAGCCTTGGGTTCTAACCTGTTGCAT (site GTCCAGCCTAT) | 0
13 | CTCTAGTCTTGGGTTCTAACCTGTTGCTT (site CTCTAGTCTAA) | 0.748
14 | CTCTAGTCTTGGGTTCTAACCTGTTGCTT (site CTCTAGTCTAC) | 0.518
15 | CTCTAGTCTTGGGTTCTAACCTGTTGCTT (site CTCTAGTCTAG) | 0.377
16 | CTCTAGTCTTGGGTTCTAACCTGTTGCTT (site CTCTAGTCTAT) | 0.755
17 | CTCTCCTCTTGGGTTCTAACCTGTTGCCT (site CTCTCCGCTAG) | 0.502
18 | CTCTCCTCTTGGGTTCTAACCTGTTGCCT (site CTCTCCTCTAG) | 1.28
19 | CTCTCGTCTTGGGTTCTAACCTGTTGCTT (site CTCTCGTCTAA) | 0.2
20 | CTCTCGTCTTGGGTTCTAACCTGTTGCTT (site CTCTCGTCTAC) | 0.517
21 | CTCTCGTCTTGGGTTCTAACCTGTTGCTT (site CTCTCGTCTAG) | 0.107
22 | CTCTCGTCTTGGGTTCTAACCTGTTGCTT (site CTCTCGTCTAT) | 0.091

Row | Sequence | recombinant barcode read abundance (log10)
23 | CTCTGTCCTTGGGTTCTAACCTGTTGCCA (site CTCTGTCCTTA) | 0.0433
24 | CTCTGTCCTTGGGTTCTAACCTGTTGCCA (site CTCTGTCCTTG) | 0.545
25 | CTCTTAACTTGGGTTCTAACCTGTTGCGG (site AAGCATGCTTA) | 0.113
26 | CTCTTAACTTGGGTTCTAACCTGTTGCGG (site CTCTTAACTCC) | 0.536
27 | CTCTTAGCTTGGGTTCTAACCTGTTGCAA (site CTCTTAACTTA) | 0.0112
28 | CTCTTAGCTTGGGTTCTAACCTGTTGCAA (site CTCTTAGCTTT) | 0.0457
29 | CTCTTCACTTGGGTTCTAACCTGTTGCCG (site CTCTTCACTCG) | 0.998
30 | CTCTTCACTTGGGTTCTAACCTGTTGCCG (site CTCTTCGCTAG) | 0.0289
31 | CTGAGTTCTTGGGTTCTAACCTGTTGCCA (site CTGAGTCCTTG) | 0.269
32 | CTGAGTTCTTGGGTTCTAACCTGTTGCCA (site CTGAGTTCTTG) | 0.0274
33 | CTGATCCCTTGGGTTCTAACCTGTTGCGG (site CTGATCCCTCC) | 1.05
34 | CTGATCCCTTGGGTTCTAACCTGTTGCGG (site CTGCTCCCTCC) | 0
35 | CTGATCCCTTGGGTTCTAACCTGTTGCGG (site CTGGTCCCTCC) | 0.136
36 | CTGATCCCTTGGGTTCTAACCTGTTGCGG (site CTGTTCCCTCC) | 0.0812
37 | CTGATTACTTGGGTTCTAACCTGTTGCCT (site CTGATAACTAG) | 0.0337
38 | CTGATTACTTGGGTTCTAACCTGTTGCCT (site CTGATCACTAG) | 0.0584
39 | CTGATTACTTGGGTTCTAACCTGTTGCCT (site CTGATGACTAG) | 0.0346
40 | CTGATTACTTGGGTTCTAACCTGTTGCCT (site CTGATTACTAG) | 0.21
41 | CTGCAAGCTTGGGTTCTAACCTGTTGCCT (site CTACAAGCTAG) | 1.29
42 | CTGCAAGCTTGGGTTCTAACCTGTTGCCT (site CTCCAAGCTAG) | 0.218
43 | CTGCAAGCTTGGGTTCTAACCTGTTGCCT (site CTGCAAGCTAG) | 0.995
44 | CTGCAAGCTTGGGTTCTAACCTGTTGCCT (site CTTCAAGCTAG) | 0.854

Row | Sequence | recombinant barcode read abundance (log10)
45 | CTGGACCCTTGGGTTCTAACCTGTTGCCG (site CTGGACCCTCG) | 1.91
46 | CTGGACCCTTGGGTTCTAACCTGTTGCCG (site GATTCGACTAC) | 0.0386
47 | CTGGCAGCTTGGGTTCTAACCTGTTGCCT (site ACAAACCCTTA) | 0.241
48 | CTGGCAGCTTGGGTTCTAACCTGTTGCCT (site CTGGCAGCTAG) | 0.445
49 | CTGGCGCCTTGGGTTCTAACCTGTTGCAT (site CTGGCGCCTAT) | 0.908
50 | CTGGCGCCTTGGGTTCTAACCTGTTGCAT (site TCTCGAGCTTC) | 0.0909
51 | CTGGCTCCTTGGGTTCTAACCTGTTGCTT (site CTGGCTCCTAA) | 0.227
52 | CTGGCTCCTTGGGTTCTAACCTGTTGCTT (site CTGGTTCCTAG) | 0.0218
53 | CTGGGGTCTTGGGTTCTAACCTGTTGCTT (site CTGGGGTCTAA) | 2.43
54 | CTGGGGTCTTGGGTTCTAACCTGTTGCTT (site GACTAAGCTCC) | 0.105
55 | CTGGTGCCTTGGGTTCTAACCTGTTGCCT (site CAGGTGCCTAG) | 0.808
56 | CTGGTGCCTTGGGTTCTAACCTGTTGCCT (site CCGGTGCCTAG) | 0.116
57 | CTGGTGCCTTGGGTTCTAACCTGTTGCCT (site CGGGTGCCTAG) | 0.248
58 | CTGGTGCCTTGGGTTCTAACCTGTTGCCT (site CTGGTGCCTAG) | 1.46
59 | CTGTAGCCTTGGGTTCTAACCTGTTGCTG (site CTGTAGCCTCA) | 0.578
60 | CTGTAGCCTTGGGTTCTAACCTGTTGCTG (site CTGTAGGCTTA) | 0.0376
61 | CTGTAGGCTTGGGTTCTAACCTGTTGCTA (site CTGTAGCCTCA) | 0.136
62 | CTGTAGGCTTGGGTTCTAACCTGTTGCTA (site CTGTAGGCTTA) | 0.716
63 | CTGTCGACTTGGGTTCTAACCTGTTGCCT (site CTATCCACTAG) | 0.0154
64 | CTGTCGACTTGGGTTCTAACCTGTTGCCT (site CTGTCGACTAG) | 0.286
65 | CTGTCTACTTGGGTTCTAACCTGTTGCCT (site CAGTCTACTAG) | 0.0294
66 | CTGTCTACTTGGGTTCTAACCTGTTGCCT (site CCGTCTACTAG) | 0.197

Row | Sequence | recombinant barcode read abundance (log10)
67 | CTGTCTACTTGGGTTCTAACCTGTTGCCT (site CGGTCTACTAG) | 0.134
68 | CTGTCTACTTGGGTTCTAACCTGTTGCCT (site CTGTCTACTAG) | 0.0179
69 | CTTACTACTTGGGTTCTAACCTGTTGCCT (site ATCACTACTAG) | 0.105
70 | CTTACTACTTGGGTTCTAACCTGTTGCCT (site CTTACTACTAG) | 0.126
71 | CTTAGGACTTGGGTTCTAACCTGTTGCCT (site CTTAGGACTAG) | 0.205
72 | CTTAGGACTTGGGTTCTAACCTGTTGCCT (site CTTAGGACTCG) | 0.0406
73 | CTTAGGACTTGGGTTCTAACCTGTTGCCT (site CTTAGGACTGG) | 0.136
74 | CTTAGGACTTGGGTTCTAACCTGTTGCCT (site CTTAGGACTTG) | 0.0473
75 | CTTCAACCTTGGGTTCTAACCTGTTGCCT (site CTTCAACCTAG) | 1.75
76 | CTTCAACCTTGGGTTCTAACCTGTTGCCT (site CTTCACCCTAG) | 0.215
77 | CTTCAACCTTGGGTTCTAACCTGTTGCCT (site CTTCAGCCTAG) | 0.0746
78 | CTTCAACCTTGGGTTCTAACCTGTTGCCT (site CTTCATCCTAG) | 0.139
79 | CTTCACACTTGGGTTCTAACCTGTTGCAT (site CTTCACACTAT) | 1.7
80 | CTTCACACTTGGGTTCTAACCTGTTGCAT (site CTTCACGCTAG) | 0.316
81 | CTTCAGACTTGGGTTCTAACCTGTTGCTA (site CCTCAGACTTC) | 0.0983
82 | CTTCAGACTTGGGTTCTAACCTGTTGCTA (site CTTCAGACTTA) | 1.43
83 | CTTCATTCTTGGGTTCTAACCTGTTGCCT (site CTTCATTCTAG) | 0.102
84 | CTTCATTCTTGGGTTCTAACCTGTTGCCT (site TGCTGGGCTCA) | 0.0303
85 | CTTCGAGCTTGGGTTCTAACCTGTTGCGG (site CTTCGAGCTCA) | 0.0538
86 | CTTCGAGCTTGGGTTCTAACCTGTTGCGG (site CTTCGAGCTCC) | 0.98
